One series concerns the target GST-ERα-LBD (Homo sapiens (Human), UniProt P03372). Kind of series: ERα TR-FRET test. The format is biochemical. The note with it: estradiol final concentration 1.5 nM, biotin-SRC2. As to the method:
1× Tris-HCl (Sigma, PHG0002) protein buffer was prepared and mixed for later use. The compound to be detected was prepared into a stock solution with a concentration of 2 mM and then subjected to serial 3-fold gradient dilution, resulting in a total of 10 concentrations.
Preparation of 1× protein mixed solution: firstly, 2× GST-ERα-LBD (Invitrogen, A15677)/MAb anti-GST-Eu (Cisbio, 61GSTKLA) mixed solution was prepared according to the following table.
2× biotin-SRC2/streptavidin-XL665 (Cisbio, 610SAXLA) mixed solution was prepared.
The above 2× GST-NR-LBD/ MAb anti-GST-Eu solution and 2× biotin-SRC2/streptavidin-XL665 solution were uniformly mixed at a volume ratio of 1:1; and the 1× protein mixed solution was added to each well of a 384-well plate, with 20 μL being added per well, the 384-well plate was put into a centrifuge and centrifuged at room temperature at 1000 rpm for 10 seconds, and it was taken out, then left to stand at room temperature for 3 h, and then read by EnVision multifunctional microplate reader.
The inhibition rate was calculated according to the following formula: […]
The data were imported into Graphpad Prism, and Log(agonist) vs. response-variable slope was used for curve fitting.
Y=Bottom+(Top−Bottom)/(1+10^((LogEC50−X)*HillSlope)) Fitting formula

Series [1] concerns Human breast cancer cells MCF-7. Kind of series: MCF-7 cell proliferation experiment. The format is cell-based. The note with it: Homo sapiens, MCF7; MCF-7 cells, 72 hours, Cell Titer-Glo. As to the method: Test Example 2: MCF-7 Cell Proliferation Experiment
Human breast cancer cells MCF-7 (HTB-22, purchased from ATCC) were inoculated into a 96-well plate. The culture medium was an MEM (Hyclone, SH30024.01B) culture medium containing 10% of FBS (Gibco, 10099-141), 1% of pyruvic acid (Sigma, S8636), and 1% of nonessential amino acid (Sigma, M7145), and the inoculation density was 4,000 cells/well. The cells were cultured at 37° C., 5% CO2. The compound was prepared into a 20 mM stock solution, which was subjected to gradient dilution to a final concentration of […] with 100% DMSO (Sigma, D2650) and then diluted 20 folds with a culture medium containing 2% of FBS. After 24 hours of culture, the culture medium was removed, 90 μL of a culture medium containing 2% of FBS and 10 μL of drug were added to each well, while 10 μL of DMSO was added to the control group, and they were gently shaken and mixed. The blank group only contained 100 μL of 2% FBS culture medium. They were placed in an incubator and cultured at 37° C., 5% CO2. After 72 hours, 50 μL of mixed Cell Titer-Glo (Promega, G7571) was added. They were shaken and mixed uniformly, and placed at room temperature for 10 min. The chemiluminescence signal value was determined. The negative control was 0.5% DMSO well.

In another series the target is ERα (Homo sapiens (Human), UniProt P03372). Kind of series: Degradation effect of compound on ERα (ERα DuoSet IC ELISA in MCF-7 cells). The format is cell-based. The note with it: 24 h with compound, read-out: IC50 value of ERα degradation by compound. As to the method: In this test example, ERα DuoSet IC ELISA Kit (R&D, DYC5715) was used to detect the degradation effect of the compound on ERα. On the first day of the experiment, human breast cancer cells MCF-7 (the source was as above) were inoculated into a 24-well plate. The culture medium was an MEM culture medium containing 10% of activated-carbon-treated FBS (Tocyto, UT61204), 1% of pyruvic acid and 1% of nonessential amino acid. The inoculation density was 150,000 cells/well. The cells were cultured at 37° C., 5% CO2 for 24 h.
ERα, sequence (P03372 whole entry): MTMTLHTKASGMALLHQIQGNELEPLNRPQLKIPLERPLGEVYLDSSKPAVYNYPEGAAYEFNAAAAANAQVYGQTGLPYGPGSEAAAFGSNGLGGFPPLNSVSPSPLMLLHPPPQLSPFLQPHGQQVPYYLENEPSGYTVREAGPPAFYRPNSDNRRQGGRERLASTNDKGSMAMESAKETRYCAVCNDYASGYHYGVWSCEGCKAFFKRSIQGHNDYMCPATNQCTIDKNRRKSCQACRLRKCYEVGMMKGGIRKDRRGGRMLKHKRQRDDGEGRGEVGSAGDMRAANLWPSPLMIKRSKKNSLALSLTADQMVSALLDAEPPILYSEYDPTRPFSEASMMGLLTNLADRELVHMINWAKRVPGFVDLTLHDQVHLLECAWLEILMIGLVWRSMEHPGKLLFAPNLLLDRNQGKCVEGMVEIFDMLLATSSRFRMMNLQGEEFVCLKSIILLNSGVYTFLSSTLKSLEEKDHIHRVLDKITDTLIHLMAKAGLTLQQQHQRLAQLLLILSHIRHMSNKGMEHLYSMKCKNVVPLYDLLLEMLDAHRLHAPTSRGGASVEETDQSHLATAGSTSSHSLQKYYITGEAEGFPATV
On the second day of the experiment, the compound to be tested was diluted in gradient and added to a 24-well plate containing cells. The cells were cultured for 24 h at 37° C., 5% CO2. ERα capture antibody was diluted to 1 μg/ml with PBS (Corning, 21-040-CVR) and added to a 96-well plate at 100 μL/well, and the plate was […] coated overnight at room temperature.
On the third day of the experiment, the coated 96-well plate was washed three times with PBS, 300 μL of a blocking solution (R&D, DY995) was added to each well, and the plate was blocked at room temperature for 1 h. The 24-well plate was washed once with PBS, and the residual liquid was sucked off. […] The diluted cell lysate was taken and added to the blocked 96-well plate, with 100 μL per well, and incubated at room temperature for 2 h. The plate was washed three times with a washing solution (R&D, WA126), and a primary antibody was then added. After incubation for 1 h, the 96-well plate was washed four times, a secondary antibody was added, and incubation was carried out at room temperature in the dark for 30 min. The plate was washed four times with the washing solution, and TMB (R&D, DY999) was added. After 15 minutes of development, the reaction was terminated with a stop solution (R&D, DY994), and the light absorption at 450 nm was read.
(ELISA stands for enzyme-linked immunosorbent assay.)

Series [2] is described as follows: Stability in human liver microsomes in vitro. The format is in vitro ADME. The note with it: human liver microsomes; for half-life: microsome protein 1 mg/mL working solution, NADPH; for CLint scaled: scaled to liver; for microsomal CLint: read-out: CLint(mic). The procedure:
Test Example 4: Test for Stability in Human Liver Microsomes In Vitro Eight 96-well incubation plates were prepared and named [NT], Blank60 and NCF60, respectively. […] No test compound or control compound was added to Blank60 plate, and samples were taken after incubation for 60 min. NCF60 plate was incubated with a potassium phosphate buffer instead of an NADPH regeneration system solution (Sigma, N0505) for 60 min. […] Only the microsome working solution was added to Blank60 plate, and the incubation plates Blank60, T5, T15, T30, T45 and T60 except T0 and NCF60 were then placed in a water bath at 37° C. and pre-incubated for about 10 min. To the samples of T0 plate, 600 μL of a stop solution (acetonitrile:methanol (95:5, v/v) solution containing 100 ng/mL of tolbutamide (Sigma, T0891)) was added first, and the NADPH regeneration system working solution was then added. 98 μL of a potassium phosphate buffer was added to each well of NCF60 plate and incubated for 60 min. After the pre-incubation in the incubation plates Blank60, T5, T15, T30, T45 and T60 was completed, 98 μL of the NADPH regeneration system working solution was added to each sample well to initiate the reaction. After an appropriate incubation time (such as 5, 15, 30, 45 and 60 min), 600 μL of a stop solution was added to each sample well and the control sample well in Blank60, […] the reaction. All the sample plates were shaken uniformly and centrifuged at 3220×g for 20 min. 200 μL of test sample supernatant was separately taken and diluted in 200 μL of an aqueous solution containing 0.3% formic acid for LC-MS/MS analysis, and 100 μL of control sample supernatant was taken and diluted in 300 μL of pure water for LC-MS/MS analysis. Calculation was performed according to the following formula: [formula] [formula] [formula] [formula] [formula] [formula]
For orientation: Microsomes from liver hold many membrane-bound enzymes, among them those of drug oxidation.

The values below come from US20240217988A1, “ESTROGEN RECEPTOR ANTAGONIST” (Shenzhen Forward Pharmaceuticals Co., Limited, priority 2021, published 2024).

GST-ERα-LBD, sequence (P03372 311-547): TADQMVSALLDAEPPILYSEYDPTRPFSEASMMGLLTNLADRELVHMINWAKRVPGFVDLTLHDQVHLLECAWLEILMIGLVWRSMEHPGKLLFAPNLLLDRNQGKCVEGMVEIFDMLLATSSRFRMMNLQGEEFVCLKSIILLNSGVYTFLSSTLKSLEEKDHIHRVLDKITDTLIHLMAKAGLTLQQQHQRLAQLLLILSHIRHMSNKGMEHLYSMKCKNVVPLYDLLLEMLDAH

On to `COc1cc(NC2CN(CCCF)C2)cc(Cl)c1[C@@H]1c2ccc3[nH]c(=O)oc3c2C[C@@H](C)N1CC(F)(F)F` [Example 33, (6S,8R)-6-(4-((1-(3-fluoropropyl)azetidin-3-yl)amino)-2-methoxy-6-chloro-phenyl)-8-methyl-7-(2,2,2-trifluoroethyl)-6,7,8,9-6,7,8,9-tetrahydrooxazolo[5,4-f]isoquinolin-2(3H)-one], for which it took 11.8 nM to reach half-maximal inhibition on GST-ERα-LBD (IC50). For the same compound, in series [1], inhibition was half-maximal at 0.39 nM (IC50). Moreover, the DC50 on ERα turned out to be 0.35 nM. In addition, in series [2], the half-life (usually how long it takes for the measured level to halve) amounted to 1.85 h; the intrinsic clearance (CLint scaled) (as a rule, a measure of how fast metabolising enzymes remove a compound, apart from limits set by blood flow) came out at 7.9 mL/min/kg; the microsomal CLint is 8.3 µL/min/mg.
As for `COc1cc(NC2CN(CCCF)C2)cc(F)c1[C@@H]1c2ccc3[nH]c(=O)oc3c2C[C@@H](C)N1CC(F)(F)F` [Example 34, (6S,8R)-6-(4-((1-(3-fluoropropyl)azetidin-3-yl)amino)-2-methoxy-6-fluoro-phenyl)-8-methyl-7-(2,2,2-trifluoroethyl)-6,7,8,9-6,7,8,9-tetrahydrooxazolo[5,4-f]isoquinolin-2(3H)-one], half-maximal inhibition against GST-ERα-LBD (IC50) was put at 19.4 nM. In addition, the midpoint of inhibition in series [1], the IC50, lay at 0.19 nM. Moreover, the DC50 at ERα stood at 0.24 nM. Also, in series [2], the half-life was 1.78 h, the intrinsic metabolic clearance (CLint scaled) stood at 8.9 mL/min/kg and the microsomal CLint came to 10.1 µL/min/mg.
